# Test results taken from PMC12302426, “Dihydrokoumine, a dual-target analgesic with reduced side effects isolated from a traditional Chinese medicine” (Journal of Advanced Research, 2024).
# How the values were obtained:
# [1] = test system: C57BL/6 male mice; assay: Hot-plate assay (acute pain); type: in vivo; details: morphine 5 mg/kg i.p.
# Protocol: The hot-plate test in mice was conducted following previously established method. Six-week-old C57BL/6 male mice were used in hot-plate assay (n = 6). Hot-plate response latency (55°C) after drug treatment was used to measure antinociceptive effect, where response was defined by the animal either by licking paws, flicking paws or jumping. Mice were exposed to the hot plate (Ugo Basile model 7280, Comerio, Italy) for a maximum of 20 s to avoid tissue damage. After three days’ baseline measure, mice were injected intraperitoneally (5 mL/kg) with the solvent mixture, morphine (5 mg/kg) or DK (20, 40 mg/kg) and latency was tested 0.5-, 1-, 2-, 3- and 4- hours post-administration. Evaluation of MOR agonistic and M3R antagonistic activity of DK, naloxone (2 mg/kg) and oxotremorine (0.4 mg/kg) were first injected intraperitoneally, immediately followed by the injection of morphine (5 mg/kg, evaluation of MOR) or DK (20 mg/kg).
# [2] = molecular target: T1, M3R (Homo sapiens, UniProt P20309); assay: Radioligand binding assay, [3H] NMS; details: [3H] NMS 0.2 nM
# T1 construct: expressed in transfected cells; host or cells: HEK293 cell membranes
# T1 sequence (P20309 whole entry): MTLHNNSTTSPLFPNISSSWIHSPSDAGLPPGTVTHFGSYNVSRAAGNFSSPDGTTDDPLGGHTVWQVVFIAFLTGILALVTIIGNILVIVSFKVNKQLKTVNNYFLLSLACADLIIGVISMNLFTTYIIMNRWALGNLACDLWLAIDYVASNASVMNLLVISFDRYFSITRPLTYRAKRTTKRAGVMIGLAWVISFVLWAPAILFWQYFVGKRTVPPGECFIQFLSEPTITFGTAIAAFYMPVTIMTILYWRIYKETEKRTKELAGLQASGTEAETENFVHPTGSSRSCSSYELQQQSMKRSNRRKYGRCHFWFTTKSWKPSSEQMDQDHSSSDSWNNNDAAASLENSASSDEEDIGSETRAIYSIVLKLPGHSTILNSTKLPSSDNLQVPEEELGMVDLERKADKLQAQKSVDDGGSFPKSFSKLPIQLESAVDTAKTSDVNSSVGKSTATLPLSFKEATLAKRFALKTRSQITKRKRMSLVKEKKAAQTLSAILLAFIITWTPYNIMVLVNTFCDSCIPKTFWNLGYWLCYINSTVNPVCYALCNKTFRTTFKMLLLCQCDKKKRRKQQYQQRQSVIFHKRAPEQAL
# Protocol: Radioligand binding assays were conducted using MicroBeta2 (PerkinElmer, USA). Membrane protein preparations MOR and M3R were each prepared at a concentration of 2.5 µg/well. The radio ligands [^3H] DAMGO (specific for MOR) and [^3H]-NMS (specific for M3R) were prepared at concentrations of 0.5 nM and 0.2 nM, respectively. […] For each well, 1 µL of the serially diluted test compounds was transferred, followed by the addition of 100 µL of membrane stock solution and 100 µL of radioligand. The plates were sealed and shaken at 300 rpm at room temperature for one hour. Upon completion of the binding assay, the contents of each well were filtered through Unifilter-96 GF/C filter plates (PerkinElmer, USA). The filter plates were dried for one hour at 50°C and sealed. The trapped ^3H (tritium) on the filters was then quantified using the MicroBeta2. The percentage of inhibition or binding was subsequently calculated.
Compound,time course of antinociception [1],efficacy (maximal inhibition of radioligand binding) [2]
"CN1CC[C@]23c4c5ccc(O)c4O[C@H]2[C@@H](O)C=C[C@H]3[C@H]1C5 [morphine, reference compound]",largely reduced after one hour and even disappeared at 3 h,
"CN1[C@@H]2C[C@@H](OC(=O)[C@H](CO)c3ccccc3)C[C@H]1[C@@H]1O[C@@H]12 [scopolamine, reference compound]",,100%
